# Source: patent publication US5627156A, “Polypeptide agonists for human interleukin-8” (University of Nebraska Board of Regents, priority 1994, dated 1997)
# Where no end group is shown, it is not given here.
# Key:
# [1] = system: peritoneal cells (PMNs, monocytes/macrophages, lymphocytes); experiment: In vivo chemotactic activity into the peritoneum after ip injection; set-up: species or system C57BL/6 mice
# Procedure: (§1) A stock solution of 5 mg/ml of Analog 1 was prepared using Dulbecco's phosphate buffered saline D-PBS. The solution was made 5× to compensate for the injection of 0.2 ml ip. The mice were dosed at various times with various doses of analog 1. The ip administration was with a volume of 0.2 ml. In addition, excipient control animals were injected.
# (§2) The mice used for the study were C57BL/6 females, which were obtained from Jackson Laboratories. The mice used in these studies were at 8-10 weeks of age and weighed 15-18 g. The mice were housed in conventional cages, fed pelleted food and given water ad libitum.
# The mice were sacrificed by ether overdose, the ventral skin reflected and the peritoneum lavaged with three 5 ml lavages of calcium-, magnesium-freeHBSS. At one, two, four, eight and 24 hours, following injection, three to five mice and/or control mice were lavaged and the cells collected in 15 ml tubes. The peritoneal cells were then centrifuged and counted. In addition, a differential was done on the peritoneal cells in a cytospin preparation. For the cytospin, 25 μl of bovine albumin (Sigma Lot #70H0183) was first placed in the bottom of the chamber, and 100 μl of cell suspension (100,000 cells) added. It was spun at 1000 rpm for 5 minutes and then left to dry. Next, they were placed in leukostat fixative solution for 5 seconds followed by 45 seconds in Leukostat solution 1 and 45 seconds in Leukostat solution 2 and finally washed in deionized H2 O for 5 seconds and allowed to dry. The slides were analyzed under microscope for differentials.
# [2] = system: peripheral blood cells (PMNs, monocytes, lymphocytes); experiment: In vivo peripheral blood (PBL) cellularity after ip injection; set-up: species or system C57BL/6 mice; settings: single ip injection
# Procedure: as §1, §2
# At various times following injection of Analog 1 the mice were bled from retinal orbital plexus with 40 μl removed into heparanized capillary tubes and the blood analyzed using a Serona Baker 9000 Blood analyzer. In addition, blood films were made and differentials undertaken on at least 200 cells/sample.
# [3] = system: Polymorphonuclear leukocytes (PMNs); experiment: Neutrophil Ca release by flow cytometry (Fluo-3); type: cell-based, human
# Procedure: Polymorphonuclear leukocytes (≥95% neutrophils, PMNs) were isolated from heparinized (10 U/ml) blood collected from healthy volunteers. Erythrocytes were removed by 6% dextran sedimentation for 30 minutes at room temperature, and then the supernatant was subjected to Ficoll (Ficoll-Paque, Pharmacia LKB, Uppsala, Sweden) density gradient centrifugation. PMNs were obtained from the pellet. Contaminated erythrocytes were eliminated by one cycle of hypotonic lysis. After an additional washing step the cells were counted and adjusted to a final concentration of 5×10^6 /ml in RPMI 1640 (Gibco, Grand Island, N.Y.). Fluo-3 Loading--The loading procedure with Fluo-3 (Molecular Probes, Eugene, Oreg.) was carried out with PMNs suspended at a density of 5×10^6 /ml in fresh RPMI 1640 containing 2.0 μM Fluo-3 AM (prediluted in dimethyl sulfoxide; Sigma Chemicals) in polypropylene tubes (Falcon 2063, Becton Dickinson). […]
# Measurement of [Ca^2+ ] in Flow Cytometry--Before addition of the stimuli the fluorescence channel of the FAGScan Plus (Becton Dickinson) was adjusted to find the basal fluorescence level of loaded but unstimulated PMNs. The samples were excited by an argon laser at 488 nm and emission was measured at 525 nm (green fluorescence, channel FL1). […] The fluorescence of Fluo-3-loadedcells was measured in arbitrary fluorescence units of mean channel fluorescence (channel FL1). […]
# [4] = Biological activity of the analog compared to analog 1 (test not specified); settings: C-terminally truncated, residues 4 to 17
# Procedure: The biological activity of an analog of the invention is determined by comparing the analog with naturally occurring IL-8.
# [5] = system: receptor sites on neutrophils; settings: cited from earlier work
substance,measurement,setting,value
"ELRCQCIKTYSKPFHPK (cysteine pairing not given here) [Analog 1, structural mimic of IL-8 from amino acid residues 4 to 20]",kinetics of the in vivo chemotactic response in the peritoneum,"[1]; ip injection of 10 μg, FIG. 7",greatest increase observed was in the number of macrophages and PMNs
same,primary cell type elicited in the peritoneum,"[1]; ip injection, FIG. 3",PMNs
same,increase in PMN into the peritoneum,"[1]; ip injection, FIG. 4",four-fold
same,increase in monocyte/macrophages into the peritoneum,"[1]; ip injection, FIG. 4",two-fold
same,dose of optimal activity on peritoneal cellularity,"[1]; single ip injection, 0.1-500 μg/animal, FIG. 1",10 μg/animal
same,PBL cellularity,[2]; FIG. 2,significant increase
same,frequency of PMNs in the peripheral blood,[2]; FIG. 5,increase
same,absolute number of PMNs and monocytes in the peripheral blood,[2]; FIG. 6,significant increase
same,neutrophil Ca concentration,"[3]; FIG. 10A and B, concentration not given",induced a change in neutrophil Ca concentrations
"Glu-Leu-Arp-Cys-Gln-Cys-Ile-Lys-Thr-Tyr-Ser-Lys-Pro-Phe (ELRCQCIKTYSKPF) [Analog 2, structural mimic of human IL-8 from amino acid residues 4 to 17]",activity compared to analog 1,[4],slight loss of activity
Interleukin 8 [IL-8],neutrophil Ca concentration,"[3]; 77 amino acid IL-8 at 10^-6 M, FIG. 8B",the majority of neutrophils showed an increase in calcium concentration
same,Kd,[5],0.2 nM
